How the values were obtained:
major crops = assay: Pre-emergence test experiment (crops); type: in vivo; set-up: key: 9: completely dead; 8: growth control rate is greater than or equal to 90% and less than 100%; 7: growth control rate is greater than or equal to 80% and less than 90%; 6: growth control rate is greater than or equal to 70% and less than 80%; growth control rate is greater than or equal to 50% and less than 70%; 4: growth control rate is greater than or equal to 30% and less than 50%; growth control rate is greater than or equal to 20% and less than 30%; growth control rate is greater than or equal to 10% and less than 20%; growth control rate is less than 10%; 0: no effect; settings: 30 g a.i./ha
[1] = tested on: monocotyledonous and dicotyledonous weeds; assay: Pre-emergence test experiment (weeds); type: in vivo; set-up: key: 9: completely dead; 8: growth control rate is greater than or equal to 90% and less than 100%; 7: growth control rate is greater than or equal to 80% and less than 90%; 6: growth control rate is greater than or equal to 70% and less than 80%; growth control rate is greater than or equal to 50% and less than 70%; 4: growth control rate is greater than or equal to 30% and less than 50%; growth control rate is greater than or equal to 20% and less than 30%; growth control rate is greater than or equal to 10% and less than 20%; growth control rate is less than 10%; 0: no effect; settings: 30 g a.i./ha

SMILES: Cc1ccc(-n2cnc(C(F)F)n2)nc1Oc1ccc(F)c(OC(F)(F)F)c1 [Compound 80]
- Pre-emergence plant damage level (growth control rate) on Corn (major crops): 0
- Pre-emergence plant damage level (growth control rate) on Cotton (major crops): 0
- Pre-emergence plant damage level (growth control rate) on Soybean (major crops): 0
- Pre-emergence activity level (growth control rate) on Amaranthus retroflexus [1]: 9
- Pre-emergence activity level (growth control rate) on Descurainia sophia [1]: 9
- Pre-emergence activity level (growth control rate) on Digitaria sanguinalis [1]: 9
- Pre-emergence activity level (growth control rate) on Setaria viridis [1]: 8 (growth control rate is greater than or equal to 90% and less than 100%)
- Pre-emergence activity level (growth control rate) on Solanum nigrum [1]: 9
- Pre-emergence activity level (growth control rate) on Veronica [1]: 9

SMILES: Cc1ccc(-n2cnc(C(F)(F)C(F)(F)F)n2)nc1Oc1ccc(F)c(C(F)(F)F)c1 [Compound 126]
- Pre-emergence activity level (growth control rate) on Descurainia sophia [1]: 9
- Pre-emergence activity level (growth control rate) on Solanum nigrum [1]: 9

SMILES: CCc1ccc(-n2cnc(C(C)(F)F)n2)nc1Oc1cccc(C(F)(F)F)c1 [Compound 18]
- Pre-emergence plant damage level (growth control rate) on Corn (major crops): 0
- Pre-emergence plant damage level (growth control rate) on Cotton (major crops): 0
- Pre-emergence plant damage level (growth control rate) on Soybean (major crops): 0
- Pre-emergence activity level (growth control rate) on Amaranthus retroflexus [1]: 9
- Pre-emergence activity level (growth control rate) on Descurainia sophia [1]: 9
- Pre-emergence activity level (growth control rate) on Digitaria sanguinalis [1]: 8 (growth control rate is greater than or equal to 90% and less than 100%)
- Pre-emergence activity level (growth control rate) on Setaria viridis [1]: 8 (growth control rate is greater than or equal to 90% and less than 100%)
- Pre-emergence activity level (growth control rate) on Solanum nigrum [1]: 8 (growth control rate is greater than or equal to 90% and less than 100%)
- Pre-emergence activity level (growth control rate) on Veronica [1]: 9

SMILES: Cc1ccc(-n2cnc(C(F)(F)F)n2)nc1Oc1cccc(OC(F)(F)F)c1 [Compound 9]
- Pre-emergence plant damage level (growth control rate) on Corn (major crops): 0
- Pre-emergence plant damage level (growth control rate) on Cotton (major crops): 0
- Pre-emergence plant damage level (growth control rate) on Soybean (major crops): 0
- Pre-emergence activity level (growth control rate) on Amaranthus retroflexus [1]: 9
- Pre-emergence activity level (growth control rate) on Descurainia sophia [1]: 9
- Pre-emergence activity level (growth control rate) on Digitaria sanguinalis [1]: 9
- Pre-emergence activity level (growth control rate) on Setaria viridis [1]: 9
- Pre-emergence activity level (growth control rate) on Solanum nigrum [1]: 9
- Pre-emergence activity level (growth control rate) on Veronica [1]: 9

SMILES: Cc1ccc(-n2cnc(C(F)(F)F)n2)nc1Oc1cccc(C(F)F)c1 [Compound 12]
- Pre-emergence plant damage level (growth control rate) on Corn (major crops): 0
- Pre-emergence plant damage level (growth control rate) on Cotton (major crops): 0
- Pre-emergence plant damage level (growth control rate) on Soybean (major crops): 0
- Pre-emergence activity level (growth control rate) on Amaranthus retroflexus [1]: 9
- Pre-emergence activity level (growth control rate) on Descurainia sophia [1]: 9
- Pre-emergence activity level (growth control rate) on Digitaria sanguinalis [1]: 9
- Pre-emergence activity level (growth control rate) on Setaria viridis [1]: 9
- Pre-emergence activity level (growth control rate) on Solanum nigrum [1]: 9
- Pre-emergence activity level (growth control rate) on Veronica [1]: 9

SMILES: Cc1ccc(-n2cnc(C(F)F)n2)nc1Oc1cccc(OC(F)(F)F)c1 [Compound 83]
- Pre-emergence plant damage level (growth control rate) on Corn (major crops): 0
- Pre-emergence plant damage level (growth control rate) on Cotton (major crops): 0
- Pre-emergence plant damage level (growth control rate) on Soybean (major crops): 0
- Pre-emergence activity level (growth control rate) on Amaranthus retroflexus [1]: 9
- Pre-emergence activity level (growth control rate) on Descurainia sophia [1]: 9
- Pre-emergence activity level (growth control rate) on Digitaria sanguinalis [1]: 9
- Pre-emergence activity level (growth control rate) on Setaria viridis [1]: 9
- Pre-emergence activity level (growth control rate) on Solanum nigrum [1]: 9
- Pre-emergence activity level (growth control rate) on Veronica [1]: 9

SMILES: Cc1cc(Oc2ccc(F)c(C(F)(F)F)c2)nc(-n2cnc(C(F)(F)F)n2)c1 [Compound 120]
- Pre-emergence activity level (growth control rate) on Descurainia sophia [1]: 9

SMILES: Cc1ccc(-n2cnc(C3CC3)n2)nc1Oc1cccc(C(F)(F)F)c1 [Compound 100]
- Pre-emergence activity level (growth control rate) on Setaria viridis [1]: 9
- Pre-emergence activity level (growth control rate) on Solanum nigrum [1]: 8 (growth control rate is greater than or equal to 90% and less than 100%)

SMILES: CSc1cc(Oc2cccc(C(F)(F)F)c2)nc(-n2cnc(C(F)(F)F)n2)c1 [Compound 86]
- Pre-emergence activity level (growth control rate) on Veronica [1]: 9

SMILES: CCc1ccc(-n2cnc(C(F)(F)F)n2)nc1Oc1ccc(F)c(C(F)(F)F)c1 [Compound 135]
- Pre-emergence plant damage level (growth control rate) on Corn (major crops): 0
- Pre-emergence plant damage level (growth control rate) on Cotton (major crops): 0
- Pre-emergence plant damage level (growth control rate) on Soybean (major crops): 0
- Pre-emergence activity level (growth control rate) on Amaranthus retroflexus [1]: 9
- Pre-emergence activity level (growth control rate) on Descurainia sophia [1]: 9
- Pre-emergence activity level (growth control rate) on Digitaria sanguinalis [1]: 9
- Pre-emergence activity level (growth control rate) on Setaria viridis [1]: 9
- Pre-emergence activity level (growth control rate) on Solanum nigrum [1]: 9
- Pre-emergence activity level (growth control rate) on Veronica [1]: 9

SMILES: Cc1ccc(-n2cnc(C(F)F)n2)nc1Oc1ccc(F)c(C(F)(F)F)c1 [Compound 70]
- Pre-emergence plant damage level (growth control rate) on Corn (major crops): 0
- Pre-emergence plant damage level (growth control rate) on Cotton (major crops): 0
- Pre-emergence plant damage level (growth control rate) on Soybean (major crops): 0
- Pre-emergence activity level (growth control rate) on Amaranthus retroflexus [1]: 9
- Pre-emergence activity level (growth control rate) on Descurainia sophia [1]: 9
- Pre-emergence activity level (growth control rate) on Digitaria sanguinalis [1]: 9
- Pre-emergence activity level (growth control rate) on Setaria viridis [1]: 9
- Pre-emergence activity level (growth control rate) on Solanum nigrum [1]: 9
- Pre-emergence activity level (growth control rate) on Veronica [1]: 9

SMILES: CSc1cc(Oc2cccc(OC(F)(F)F)c2)nc(-n2cnc(C(F)(F)F)n2)c1 [Compound 87]
- Pre-emergence activity level (growth control rate) on Veronica [1]: 8 (growth control rate is greater than or equal to 90% and less than 100%)

SMILES: COCc1ccc(-n2cnc(C(F)(F)F)n2)nc1Oc1cccc(F)c1 [Compound 138]
- Pre-emergence activity level (growth control rate) on Descurainia sophia [1]: 9
- Pre-emergence activity level (growth control rate) on Solanum nigrum [1]: 9

SMILES: Cc1ccc(-n2cnc(C(F)(F)C(F)(F)F)n2)nc1Oc1cccc(OC(F)F)c1 [Compound 127]
- Pre-emergence activity level (growth control rate) on Descurainia sophia [1]: 9
- Pre-emergence activity level (growth control rate) on Setaria viridis [1]: 8 (growth control rate is greater than or equal to 90% and less than 100%)
- Pre-emergence activity level (growth control rate) on Solanum nigrum [1]: 9

SMILES: CCc1ccc(-n2cnc(C(F)(F)F)n2)nc1Oc1cccc(F)c1 [Compound 129]
- Pre-emergence activity level (growth control rate) on Digitaria sanguinalis [1]: 8 (growth control rate is greater than or equal to 90% and less than 100%)
- Pre-emergence activity level (growth control rate) on Setaria viridis [1]: 9

SMILES: Cc1cc(Oc2cccc(OC(F)(F)F)c2)nc(-n2cnc(C(F)(F)F)n2)c1 [Compound 122]
- Pre-emergence activity level (growth control rate) on Amaranthus retroflexus [1]: 8 (growth control rate is greater than or equal to 90% and less than 100%)
- Pre-emergence activity level (growth control rate) on Descurainia sophia [1]: 9
- Pre-emergence activity level (growth control rate) on Digitaria sanguinalis [1]: 8 (growth control rate is greater than or equal to 90% and less than 100%)
- Pre-emergence activity level (growth control rate) on Setaria viridis [1]: 9
- Pre-emergence activity level (growth control rate) on Veronica [1]: 8 (growth control rate is greater than or equal to 90% and less than 100%)

SMILES: CCc1ccc(-n2cnc(C(F)(F)F)n2)nc1Oc1ccc(F)c(C#N)c1 [Compound 96]
- Pre-emergence activity level (growth control rate) on Amaranthus retroflexus [1]: 8 (growth control rate is greater than or equal to 90% and less than 100%)
- Pre-emergence activity level (growth control rate) on Descurainia sophia [1]: 9

SMILES: CCc1ccc(-n2cnc(C(F)(F)F)n2)nc1Oc1cccc(C)c1 [Compound 134]
- Pre-emergence activity level (growth control rate) on Amaranthus retroflexus [1]: 8 (growth control rate is greater than or equal to 90% and less than 100%)
- Pre-emergence activity level (growth control rate) on Descurainia sophia [1]: 9
- Pre-emergence activity level (growth control rate) on Digitaria sanguinalis [1]: 8 (growth control rate is greater than or equal to 90% and less than 100%)

SMILES: CCc1ccc(-n2cnc(C(F)(F)F)n2)nc1Oc1cccc(Cl)c1 [Compound 130]
- Pre-emergence activity level (growth control rate) on Descurainia sophia [1]: 9
- Pre-emergence activity level (growth control rate) on Solanum nigrum [1]: 9

SMILES: CCc1ccc(-n2cnc(C(F)F)n2)nc1Oc1cccc(F)c1 [Compound 128]
- Pre-emergence activity level (growth control rate) on Solanum nigrum [1]: 9

SMILES: Cc1cc(Oc2ccc(F)c(OC(F)(F)F)c2)nc(-n2cnc(C(F)(F)F)n2)c1 [Compound 123]
- Pre-emergence activity level (growth control rate) on Descurainia sophia [1]: 9

SMILES: CSc1cc(Oc2cncc(C(F)(F)F)c2)nc(-n2cnc(C(F)(F)F)n2)c1 [Compound 111]
- Pre-emergence activity level (growth control rate) on Descurainia sophia [1]: 9
- Pre-emergence activity level (growth control rate) on Setaria viridis [1]: 8 (growth control rate is greater than or equal to 90% and less than 100%)

SMILES: Cc1ccc(-n2cnc(C(F)(F)F)n2)nc1Oc1cccc(C#N)c1 [Compound 88]
- Pre-emergence activity level (growth control rate) on Amaranthus retroflexus [1]: 9
- Pre-emergence activity level (growth control rate) on Solanum nigrum [1]: 9

SMILES: Cc1cc(Oc2cccc(Cl)c2)nc(-n2cnc(C(F)(F)F)n2)c1 [Compound 121]
- Pre-emergence activity level (growth control rate) on Descurainia sophia [1]: 9

SMILES: Cc1ccc(-n2cnc(C(F)F)n2)nc1Oc1cccc(F)c1 [Compound 81]
- Pre-emergence activity level (growth control rate) on Amaranthus retroflexus [1]: 9
- Pre-emergence activity level (growth control rate) on Descurainia sophia [1]: 9
- Pre-emergence activity level (growth control rate) on Veronica [1]: 9

SMILES: CCc1ccc(-n2cnc(C(F)(F)F)n2)nc1Oc1cncc(C#N)c1 [Compound 94]
- Pre-emergence activity level (growth control rate) on Setaria viridis [1]: 8 (growth control rate is greater than or equal to 90% and less than 100%)

SMILES: Cc1ccc(-n2cnc(C(F)(F)C(F)(F)F)n2)nc1Oc1cccc(C(F)F)c1 [Compound 125]
- Pre-emergence activity level (growth control rate) on Descurainia sophia [1]: 9
- Pre-emergence activity level (growth control rate) on Solanum nigrum [1]: 9

SMILES: CCc1ccc(-n2cnc(C(F)F)n2)nc1Oc1cccc(Cl)c1 [Compound 131]
- Pre-emergence activity level (growth control rate) on Solanum nigrum [1]: 9

SMILES: CCc1ccc(-n2cnc(C(F)(F)F)n2)nc1Oc1cccc(C#N)c1 [Compound 89]
- Pre-emergence activity level (growth control rate) on Amaranthus retroflexus [1]: 9
- Pre-emergence activity level (growth control rate) on Digitaria sanguinalis [1]: 9
- Pre-emergence activity level (growth control rate) on Setaria viridis [1]: 9

— US20260305610A1, “TRIAZOLE COMPOUND, AND PREPARATION METHOD THEREFOR, HERBICIDAL COMPOSITION AND USE THEREOF” (QINGDAO KINGAGROOT CHEMICAL COMPOUND CO., LTD., priority 2023, published 2026)
